99 compounds from PubChem BioAssay AID586 (The Scripps Research Institute Molecular Screening Center, 2007) can be followed below.

The source made the active and inactive calls. The rule behind the calls is not given here. Where only a bound is given, the exact number is not on record here.

In this assay the test system is antigen receptor-induced NF-kappaB activation reporter, cells. The experiment in a line: NF-kB reporter activation blockers, potency – cell-based, dose response (AID 586).

`CC1CCCN(c2ncnc3c2cnn3-c2ccc(Cl)cc2)C1` (centres undefined): the IC50 was 0.073 µM.
With `O=C(O)c1cccc(COc2ccc(CO)cc2Cl)c1` the figure was 0.252 µM.
As for `Cn1c(=O)n(C)c2cc(C(=O)Nc3ccc4c(c3)OCO4)ccc21`, the figure is 2.25 µM; as for `CCOc1ccc(OCc2cccc(C(=O)N3CCOCC3)c2)cc1`, 2.57 µM; as for `O=C(Nc1nc2ccccc2[nH]1)c1ccccc1F`, 2.28 µM.
As to `O=C(Nc1ccc(N2CCOCC2)cc1)c1cnsn1`, the IC50 was 4.22 µM.
With `COc1ccc(OCc2cccc(C(=O)O)c2)cc1` the figure was 0.257 µM.
Take `CC(=O)c1ccc(-c2nc3c4ccccc4ccn3c2C(C)=O)o1`: the IC50 was 0.73 µM.
With `CC1=CC(C)(C)Nc2ccc(OC(=O)c3cccnc3)cc21` the figure was > 9.97 µM (inactive); with `CCOC(=O)c1[nH]c(C)c(C(=O)c2cc(F)ccc2F)c1C`, > 9.97 µM (inactive); with `Cc1ccc(-c2nc(-c3ccccn3)no2)cc1`, 2.06 µM.
Consider `O=C(CSc1nnnn1C1CC2CCC1C2)Nc1ccnc2ccccc12` (centres undefined), for which the IC50 is > 30 µM (inactive).
On to `CN(C)c1ccc2c(c1)OC(N)=C(C#N)C2c1cccc(F)c1` (centres undefined), for which the IC50 is 1.65 µM.
With `COc1ccc2cc(C(=O)NCc3ccco3)c(=Nc3ccc(C(=O)O)cc3)oc2c1` the figure was 20.9 µM (inactive); with `COc1cc(CC(NC(C)=O)C(=O)NC2CCN(c3nc(C)cc(C)c3C#N)CC2)cc(OC)c1` (centres undefined), 1.64 µM.
As for `Cc1ccc(-c2nsc3c(N4CCC(C(N)=O)CC4)ncnc23)cc1`, the figure is > 30 µM (inactive); as for `COC(=O)c1[nH]c2c(c1C)C(=O)CC(c1ccccc1)C2` (centres undefined), 13.2 µM (inactive).
For `Cc1nn(Cc2ccccc2Cl)c(C)c1C(=O)Nc1nnc(C2CC2)s1`, the IC50 is 2.5 µM.
`CCN1C(=O)c2cccc3c(S(=O)(=O)Nc4ccccn4)ccc1c23`: the IC50 was 2.94 µM.
`Cc1cccc(-n2ncc3c(N(C)C4CCCCC4)ncnc32)c1`: the IC50 was 6.59 µM.
With `Cc1c(C(=O)OCCOC(C)C)[nH]c2c1C(=O)CC(c1ccco1)C2` (centres undefined) the figure was 1.67 µM.
With `COc1cc(C2C(C#N)=C(N)Oc3cc(N(C)C)ccc32)cc2c1OCO2` (centres undefined) the figure was 0.766 µM; with `Cc1cc(-n2c(C)cc(C(=O)CSc3ncnc4ccccc34)c2C)no1`, > 30 µM (inactive); with `Cc1ccc(-c2cc3c(nn2)-c2ccccc2C3=O)cc1`, 3.29 µM.
With `CCOc1ccc(-c2cc(C(=O)O)c3ccccc3n2)c(OCC)c1` the figure was 4.6 µM.
In the case of `Cn1cc(/C=N/n2cnc3scc(-c4ccc(Cl)cc4)c3c2=O)c2ccccc21`, the IC50 is > 30 µM (inactive).
With `Cc1cc(C)nc(N2CCC(C(=O)NCCc3ccc(F)cc3)CC2)n1` the figure was > 30 µM (inactive).
With `COCCn1c(C)cc(C(=O)CSc2nnc(C)s2)c1C` the figure was 4.1 µM.
With `COc1cc(C(=O)N2CCN(c3cc(Cl)ccc3Cl)CC2)cc(OC)c1OC` the figure was > 30 µM (inactive); with `Cc1cccc(C)c1-n1nnnc1SCSc1nnnn1-c1c(C)cccc1C`, 3.41 µM; with `Cc1cccc(N2CCN(C(=O)c3ccc(CS(=O)(=O)c4ccccc4C)o3)CC2C)c1` (centres undefined), 7.04 µM.
`COc1cccc(Oc2cnc(N)nc2-c2ccc(OC)cc2O)c1`: the IC50 was 14.6 µM (inactive).
As to `CCOC(=O)c1ccccc1NC(=O)Cn1c(-c2nonc2N)nc2ccccc21`, the IC50 was 11.6 µM (inactive).
With `O=C(O)[C@@H]1CCCC[C@@H]1C(=O)N1CCc2ccccc2C1CN1C(=O)c2ccccc2C1=O` (some centres undefined), the IC50 was > 30 µM (inactive).
In the case of `CCOc1ccc(OCc2cccc(C(=O)O)c2)cc1`, the IC50 was 0.192 µM.
Take `COc1cccc(NC(=O)CSc2nnc(-c3cc(C)n(-c4ccccc4)c3C)o2)c1`: the IC50 was > 9.97 µM (inactive).
Turning to `CC1=CC(C)(C)Nc2ccc(OC(=O)CN3C(=O)CCC3=O)cc21`, the IC50 is 6.84 µM.
With `CCNc1ccc(C(=O)OCC)cc1NC(=O)c1cccc(N(C)C)c1` the figure was > 30 µM (inactive); with `c1ccc(-c2cccc(-c3ccccn3)n2)nc1`, 1.09 µM; with `CCN(c1ccccc1)S(=O)(=O)c1ccc(Oc2ccc(-n3ccnc3)cc2)nc1`, 0.738 µM.
As for `Cc1nn(Cc2c(Cl)cccc2Cl)c(C)c1NC(=O)c1cc(C(C)C)on1`, the figure is > 9.97 µM (inactive).
For the compound `O=C(O)c1cccc(COc2ccccc2Cl)c1`, the IC50 is 0.615 µM.
With `COc1ccc(-n2ncc3c(N4CCCCC4)ncnc32)cc1`, the IC50 is 2.66 µM.
Regarding `CC(C)c1nnc(NC(=O)c2c(O)c3cccc4c3n(c2=O)CCC4)s1`, the IC50 is > 30 µM (inactive).
For the compound `CC(C)(C)c1ccc(-c2noc(CCC(N)=O)n2)cc1`, the IC50 is 0.3 µM.
For the compound `Cc1oc2cc3c(C(=O)OCCN(C)C)c(C)oc3cc2c1C(=O)OCCN(C)C`, the IC50 is 0.438 µM.
In the case of `CC1CCN(c2nc3ccc(C(=O)O)cc3s2)CC1`, the IC50 is 0.203 µM.
As for `COc1ccccc1C(=O)N1CCN(c2cccc(Cl)c2)CC1`, the figure is 17.9 µM (inactive); as for `CCCN1C=CC(=C2C(=O)c3ccccc3C2=O)C=C1`, 1.04 µM.
With `COc1ccc(-c2noc(CCCC(=O)O)n2)cc1`, the IC50 was > 30 µM (inactive).
As for `CCNC(=O)CCc1nc(-c2ccc(C(C)(C)C)cc2)no1`, the figure is 1.61 µM.
Consider `CCn1c2ccccc2c2cc(Nc3cc(C)nc4ncnn34)ccc21`, for which the IC50 is 1.45 µM.
Consider `CCN(CC)c1ccc2cc(NC(=O)CCC(=O)O)c(=O)oc2c1`, for which the IC50 was > 9.97 µM (inactive).
As for `Cc1ccc(-c2cnc(NC(=O)CCC(=O)N3CCCCC3)n2C)cc1`, the figure is 0.953 µM; as for `Oc1c(C(Nc2nc3ccccc3s2)c2ccco2)ccc2cccnc12` (centres undefined), 1.71 µM.
With `Cc1csc(NC(=O)c2sc3nc(-c4cccs4)ccc3c2N)n1` the figure was 0.565 µM.
For the compound `NC(=O)c1sc2nccc(Nc3ccccc3)c2c1N`, the half-inhibitory concentration (IC50) is 8.97 µM.
On to `COc1ccc(C(=O)NC(=O)Nc2cc(C)ccn2)cc1`, for which the IC50 was 3.9 µM.
As for `Cc1oc(-c2ccccc2Cl)nc1CSCC(=O)N1CCCC1`, the figure is 1.16 µM; as for `CCOc1ccccc1NC(=O)c1cccc(NC(=O)c2ccco2)c1`, > 30 µM (inactive).
For the compound `COc1ccccc1-c1nnc2sc(-c3ccc(N(C)C)cc3)nn12`, the IC50 is > 9.97 µM (inactive).
Take `CCOC(=O)C(C(C)=O)c1c(Br)c(O)c(O)c2c(C(=O)c3ccc(C)cc3)coc12` (centres undefined): the IC50 was 8.33 µM.
With `CNC(=O)CCc1nc(-c2ccc(C(C)(C)C)cc2)no1` the figure was 17 µM (inactive); with `CCN1C=CC(=C2C(=O)c3ccccc3C2=O)C=C1`, 4.75 µM.
With `Cc1cc(C(=O)OCC(=O)NCc2ccco2)c(C)n1-c1ccccc1` the figure was > 30 µM (inactive); with `CSc1nnc2c3ccccc3n(CCc3ccccc3)c2n1`, 10.3 µM (inactive).
As for `CCN(CC)c1ccc(-c2nn3c(-c4ccccc4OC)nnc3s2)cc1`, the figure is 0.819 µM; as for `O=C(NC1=NCCS1)C1COc2ccccc2O1` (centres undefined), 2.42 µM; as for `O=C(/C=C\Nc1ccc2c(c1)OCO2)c1ccccn1`, 3.03 µM.
Regarding `C=C(C)COc1ccc(-c2[nH]ncc2-c2ccc(OC)c(OC)c2)c(O)c1`, the IC50 is 8.25 µM.
With `O=c1c2ccccc2cnn1-c1nc2ccccc2s1` the figure was 3.3 µM.
With `Cc1nn(-c2ccccc2)c(Cl)c1C1C(C#N)=C(N)Oc2n[nH]c(C)c21` (centres undefined) the figure was 1.86 µM; with `COc1cc(C2C(C#N)=C(C)NC3=C2C(=O)c2ccccc23)cc(OC)c1OC` (centres undefined), 6.61 µM; with `CCOc1ccc(-c2nc(CSCC(=O)NCc3ccco3)c(C)o2)cc1`, 1.83 µM.
With `CCCCn1c(SCc2c(C)noc2C)nc2cc(S(N)(=O)=O)ccc21` the figure was 2.6 µM; with `COc1ccc(C2=Nn3c(nnc3-c3ccccc3OC)SC2)cc1OC`, 1.42 µM; with `c1ccc(-c2noc(-c3ccc4ccccc4c3)n2)nc1`, 1.4 µM.
With `COc1cc(OC)cc(-c2cc3nc(C)c(CCC(=O)O)c(C)n3n2)c1`, the IC50 is 1.54 µM.
With `COc1ccc2c(c1)sc1nc(-c3ccccc3)cn12` the figure was 1.87 µM.
Regarding `CCOC(=O)c1[nH]c2c(c1C)C(=O)CC(c1ccco1)C2` (centres undefined), the IC50 was 0.316 µM.
As for `O=C1NC(Nc2nc3ccccc3s2)(C(F)(F)F)C(=O)N1C1CCCCC1` (centres undefined), the figure is > 30 µM (inactive); as for `Cc1cccc2cc(CN(Cc3cccs3)C(c3nnnn3C3CCCC3)C(C)C)c(=O)[nH]c12` (centres undefined), 8.42 µM.
With `O=C(CN1C(=O)c2ccccc2S1(=O)=O)N1CCc2ccccc21` the figure was 2.26 µM; with `COC(=O)C1=C(CN2CCCc3ccccc32)NC(=O)NC1c1ccc(F)cc1` (centres undefined), 0.7 µM.
As for `Cc1ccc2nc(-c3ccccc3)cn2c1`, the IC50 was 1.15 µM.
For the compound `CCCOc1ccccc1C1CC(=O)Nc2cc3c(cc21)OCCO3` (centres undefined), the IC50 is 25 µM (inactive).
As for `O=C(NC1c2ccccc2-c2ccccc21)N1CCCCC1`, the figure is > 30 µM (inactive); as for `O=C(NCc1cccs1)c1nc2c(nnn2Cc2ccccc2Cl)c(=O)[nH]1`, 2.32 µM; as for `CCCN(CCC)S(=O)(=O)c1ccc(C(=O)Nc2nnc(-c3cccc(OC)c3)o2)cc1`, 4.51 µM.
As for `Cc1cc(C(=O)CN2C(=O)c3ccccc3S2(=O)=O)c(C)n1CC1CCCO1` (centres undefined), the figure is 0.31 µM.
Take `COc1cccc(C=Nc2cccnc2)c1O`: the IC50 is > 30 µM (inactive).
With `CCN(CC)c1ccc2cc(-c3nc4ccccc4n3C)c(=O)oc2c1` the figure was > 9.97 µM (inactive); with `Cc1ccc(Nc2cc(C)nn2-c2nc(C)cc(=O)[nH]2)cc1`, 10.6 µM (inactive); with `CCOc1ccccc1NC(=O)Cn1nnc(C(=O)NCc2ccco2)c1N`, 1.35 µM.
As for `Cc1ccc(C(=O)NCCn2cc(SCC(=O)Nc3cc(C)on3)c3ccccc32)cc1`, the figure is 5.46 µM; as for `N#Cc1c(NC(=O)CSc2ncn[nH]2)sc2c1CCCCC2`, 6.57 µM.
As for `Clc1ccc(COn2nnc3ccccc32)c(Cl)c1`, the figure is > 30 µM (inactive); as for `COc1cccc2c(C)c(C(=O)O)[nH]c12`, 4.84 µM.
For the compound `O=C(c1ccc(Cl)cc1)N1CCCCC(Sc2nnc(-c3ccc4c(c3)OCO4)o2)C1=O` (centres undefined), the IC50 is 1.24 µM.
